Measured values reported in patent US20060241082A1, “Modulating vesicular monoamine transporter trafficking and function: a novel approach for the treatment of parkinson's disease” (priority 2002, published 2006).
Where a name gives a salt, the structure may show the parent alone.

Legend:
DAT [1] = biological target: T1, DAT (Rattus norvegicus, UniProt P23977); assay: In vitro preincubation of striatal synaptosomes with MDMA: [3H]DA uptake and WIN35428 binding; assay type: biochemical; conditions: 10 μM inhibitor 5 min, then 10 μM MDMA 30 min at 37° C.
T1 construct: from tissue; host or cells: striatum of male Sprague-Dawley rats (synaptosomes, P2)
T1 sequence (P23977 whole entry): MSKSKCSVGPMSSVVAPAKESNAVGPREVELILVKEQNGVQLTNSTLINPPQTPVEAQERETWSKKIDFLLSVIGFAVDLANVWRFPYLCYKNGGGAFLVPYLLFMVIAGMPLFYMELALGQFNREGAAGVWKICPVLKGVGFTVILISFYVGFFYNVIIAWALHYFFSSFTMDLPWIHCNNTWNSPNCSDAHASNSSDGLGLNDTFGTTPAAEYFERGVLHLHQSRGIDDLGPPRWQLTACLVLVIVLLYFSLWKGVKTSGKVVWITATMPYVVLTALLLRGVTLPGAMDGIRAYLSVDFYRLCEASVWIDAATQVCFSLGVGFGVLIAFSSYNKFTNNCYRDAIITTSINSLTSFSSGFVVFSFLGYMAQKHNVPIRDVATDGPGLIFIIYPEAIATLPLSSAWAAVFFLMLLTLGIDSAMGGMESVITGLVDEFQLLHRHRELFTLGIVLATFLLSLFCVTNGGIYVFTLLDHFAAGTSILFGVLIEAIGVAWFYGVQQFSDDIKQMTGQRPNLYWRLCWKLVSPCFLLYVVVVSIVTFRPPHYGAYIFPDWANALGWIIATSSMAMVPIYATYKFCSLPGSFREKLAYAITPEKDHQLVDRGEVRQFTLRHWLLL
Description: (§1) Uptake of [^3H]DA was determined in striatal synaptosomes prepared according to the method described by Kokoshka et al. (1998). Briefly, fresh striatal tissue was homogenized in cold 0.32 M sucrose and centrifuged (800×g for 12 min; 4° C.). The supernatant (S1) was then centrifuged (22,000×g for 15 min; 4° C.), and the resulting pellet (P2) was resuspended in ice-cold modified Kreb's buffer (in mM: 126 NaCl, 4.8 KCl, 1.3 CaCl2, 16 sodium phosphate, 1.4 MgSO4, 11 dextrose, 1-ascorbic acid, pH 7.4). Assays were conducted in Kreb's buffer. Each assay tube contained synaptosomal tissue (i.e., resuspended P2 obtained from 1.5 mg of original wet weight striatal tissue) and 1 μM pargyline. Nonspecific values were determined in the presence of 100 μM cocaine. After preincubation of assay tubes for 10 min at 37° C., assays were initiated by the addition of [^3H]DA (0.5 nM final concentration). Samples were incubated at 37° C. for 3 min. Samples were then filtered through Whatman GF/B filters (Brandel, Gaithersburg, Md.) soaked previously in 0.05% polyethylenimine. Filters were washed rapidly 3 times with 3 ml of ice-cold 0.32 M sucrose using a Brandel filtering manifold. […] Remaining resuspended P2 samples were assayed for protein concentrations according to the method of Lowry et al. (1951). In MDMA preincubation experiments, samples were preincubated with 10 μM MDMA for 30 min at 37° C. After 30 min, resuspended P2 fractions were “washed” by centrifugation (22,000×g for 15 min; 4° C.). The resulting pellet (P3) was then resuspeded in ice-cold Kreb's buffer, and once again centrifuged (22,000×g for 15 min; 4° C.) to obtain a P4 pellet that was subsequently resuspended and assayed. [^3H]WIN35428 binding (0.5 nM final concentration) was conducted in phosphate-buffered 0.32 M sucrose, pH 7.4, with synaptosomes obtained from 2 mg (original wet weight) of striatal tissue per reaction tube, and samples were incubated on ice for 2 hr. Samples were then filtered through Whatman GF/B filters (Brandel, Gaithersburg, Md.) soaked previously in 0.05% polyethylenimine. Filters were washed rapidly 3 times with 3 ml of ice-cold 0.32 M sucrose using a Brandel filtering manifold. […] Remaining resuspended P2 samples were assayed for protein concentrations according to the method of Lowry et al. (1951).

VMAT-2 [2] = assay: VMAT-2 immunoreactivity in striatal subcellular fractions (P2, P3, S3) of treated rats (Western blot); assay type: in vivo, rat; conditions: 1 h
Description: Striatal synaptosomes were prepared from rats decapitated 1 h after treatment as previously described (Fleckenstein et al., 1997). Briefly, striatal tissue was homogenized in cold 0.32 M sucrose and centrifuged (800×g for 12 min; 4° C.). The supernatant (S1) was then centrifuged (22,000×g for 15 min; 4° C.) and the resulting pellet (P2, synaptosomal fraction) was resuspended at 50 mg original wet weight/ml in cold water and a portion saved for western blot analysis. The remainder of the synaptosomal sample was centrifuged for 20 min at 22,000×g (4° C.) to pellet lysed synaptosomal membranes (P3, synaptosomal membrane fraction), which were then resuspended at 50 mg original wet weight/ml and saved for western blot analysis. Prior to resuspension of the plasmalemmal membrane fraction the supernatant (S3, vesicle-enriched fraction) was removed and saved for western blot analysis.
Binding of VMAT-2 antibody was performed using 60 μl aliquots of synaptosomal (P2), synaptosomal membrane (P3), or vesicle-enriched (S3) preparations. Each aliquot was added to 20 μl of loading buffer (final concentration: 2.25% sodium dodecyl sulfate, 18% glycerol, 180 mM Tris base (pH 6.8), 10% β-mercapto-ethanol and bromophenol blue), boiled for 10 min, and loaded on a 10% sodium dodecyl sulfate-polyacrylamide gel. Following electrophoresis, samples were transferred to polyvinlylidene difluoride membrane, blocked with 5% nonfat dry milk in Tris-buffered saline with tween (250 mM NaCl, 50 mM Tris pH 7.4 and 0.05% Tween 20), and probed with the VMAT-2 antibody (provided by J.W.H.). Bound antibody was visualized with HRP-conjugated goat anti-rabbit antibody, and antigen-antibody complexes were visualized by chemiluminescence. Multiple exposures of blots were obtained to ensure development within the linear range of the film. Bands on blots were quantified by densitometry using Kodak 1D image-analysis software.
Fresh striatal tissue was homogenized in ice-cold 0.32 M sucrose and centrifuged (800×g for 12 min; 4° C.). […] Resuspended tissue was aliquoted into two test tubes. One aliquot was centrifuged (22,000×g for 10 min; 4° C.) to separate plasmalemmal membranes from the synaptic vesicle-enriched fraction. The resulting supernatant (S3) contained the vesicular subcellular fraction of interest, and the pellets (P3; plasmalemmal membrane fraction) were resuspended in cold distilled deionized water.
VMAT-2 antibody was purchased from Chemicon (Temecula, Calif.; AB1767). Binding of VMAT-2 antibody was performed using 60 μl of whole synaptosomal, plasmalemmal membrane or vesicle subcellular fractions. Samples were added to 20 μl of loading buffer (final concentration: 2.25% SDS, 18% glycerol, 180 mM Tris Base (pH 6.8), 10% […] and bromophenol blue). Approximately 60 μg protein of the whole synaptosomal fraction, 40 μg protein of the plasmalemmal membrane fraction or 20 μg protein of the vesicle subcellular fraction was loaded per well in a 10% SDS-polyacrylamide gel. Following electrophoresis, samples were transferred to polyvinylidene difluoride hybridization transfer membrane (New England Nuclear (NEN), Boston, Mass.). All subsequent incubation steps were performed at room temperature while shaking. Each membrane was first blocked for 2 h in 100 ml of tris buffer saline with tween (TBST; 250 mM NaCl, 50 mM tris pH 7.4 and 0.05% tween 20) containing 5% nonfat dry milk. Each membrane was then incubated with anti-VMAT-2 antibody (1:4000 dilution) in 13 ml of TBST with 5% milk for 1 h and then washed 5 times (2×1 min wash; 3×5 min wash) in 70 ml TBST with 5% milk.

VMAT-2 [3] = biological target: VMAT-2 (Mus musculus, UniProt Q8BRU6); assay: Vesicular [3H]dopamine uptake in striatal vesicles prepared from treated mice; assay type: in vivo; conditions: antagonist 2 mg/kg i.p. prior to each methamphetamine injection (4 x 10 mg/kg s.c.), 1 h
Sequence of VMAT-2 (Mus musculus, UniProt Q8BRU6) (Q8BRU6 whole entry): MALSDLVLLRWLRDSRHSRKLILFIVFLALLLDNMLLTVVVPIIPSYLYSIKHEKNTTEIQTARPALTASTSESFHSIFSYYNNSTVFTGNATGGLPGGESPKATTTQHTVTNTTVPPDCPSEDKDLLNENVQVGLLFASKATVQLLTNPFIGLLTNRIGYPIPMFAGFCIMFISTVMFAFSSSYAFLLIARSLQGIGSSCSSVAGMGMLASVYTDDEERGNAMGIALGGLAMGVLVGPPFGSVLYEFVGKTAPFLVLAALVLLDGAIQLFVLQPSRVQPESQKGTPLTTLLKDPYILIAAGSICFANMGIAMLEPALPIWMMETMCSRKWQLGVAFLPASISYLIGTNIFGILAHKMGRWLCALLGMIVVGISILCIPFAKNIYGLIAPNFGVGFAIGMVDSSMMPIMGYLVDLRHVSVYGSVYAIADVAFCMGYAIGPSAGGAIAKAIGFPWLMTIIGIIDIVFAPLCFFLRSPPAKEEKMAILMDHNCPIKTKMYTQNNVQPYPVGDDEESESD
Description: (A. E. Fleckenstein, et al., J. Pharmacol Exp Ther. (1997) 282:834-838). Briefly, fresh tissue was homogenized in ice-cold 0.32 M sucrose. The homogenate was centrifuged (800×g for 12 min; 4° C.), and the supernatant (S1) was carefully removed and centrifuged (22,000×g for 15 min; 4° C.) to obtain the synaptosomal-containing pellet (P2). The resulting P2 were resuspended and homogenized in ice-cold distilled deionized water. Osmolarity was restore by addition 25 mM HEPES and 100 mM potassium tartrate (final concentration; pH 7.5 at 4° C. respectively). […] The resultant S3 removed and MgSO4 added (final concentration of [1 mM] pH 7.5 at 4° C.) and centrifuged at 100,000×g for 45 min. The final P4 were resuspended at 50 mg/ml (original tissue wet weight).

VMAT-2 [4] = biological target: T2, VMAT-2 (Rattus norvegicus, UniProt Q01827); assay type: in vivo; parameters: purified striatal vesicles prepared from treated rats; from tissue; host or cells: striatum of male Sprague-Dawley rats (synaptic vesicles; P2, P3, S3 fractions)
T2 sequence (Q01827 whole entry): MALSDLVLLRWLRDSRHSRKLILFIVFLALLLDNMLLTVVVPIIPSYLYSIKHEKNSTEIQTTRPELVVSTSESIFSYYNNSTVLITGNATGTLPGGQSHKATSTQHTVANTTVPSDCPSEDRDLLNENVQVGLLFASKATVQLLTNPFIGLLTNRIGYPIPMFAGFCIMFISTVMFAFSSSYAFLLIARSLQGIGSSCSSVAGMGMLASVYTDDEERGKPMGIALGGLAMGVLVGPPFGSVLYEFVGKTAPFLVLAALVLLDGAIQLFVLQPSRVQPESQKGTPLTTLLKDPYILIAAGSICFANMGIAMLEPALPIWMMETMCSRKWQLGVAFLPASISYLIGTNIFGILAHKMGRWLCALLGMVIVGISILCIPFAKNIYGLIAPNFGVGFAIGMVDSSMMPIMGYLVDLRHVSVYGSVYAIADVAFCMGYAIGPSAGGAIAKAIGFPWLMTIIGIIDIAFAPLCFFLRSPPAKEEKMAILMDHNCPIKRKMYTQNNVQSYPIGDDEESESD
Description: Osmolarity was restored by addition of N-(2-hydroxyethyl)-piperazine-N′-2-ethanesulfonic acid (HEPES) and potassium tartrate 25 mM and 100 mM (final concentrations; pH 7.5 at 4° C.), respectively.

VMAT-2 [5] = biological target: T2, VMAT-2; assay: [3H]DHTBZ binding in purified striatal vesicles prepared from treated rats; conditions: rats
Description: Synaptic vesicles were obtained from synaptosomes prepared from rat striatum as described above. Synaptosomes were resuspended and homogenized in cold distilled deionized water. Osmolarity was restored by addition of HEPES and potassium tartrate 245 and 100 mM (final concentrations; pH 7.5), respectively. Samples were centrifuged for 20 min at 20,000×g (4° C.) to remove lysed synaptosomal membranes. MgSO4 (1 mM, final concentration) was added to the supernatant, which was then centrifuged for 45 min at 100,000×g (4° C.). The resulting vesicular pellet was resuspended in wash buffer at a concentration of 50 mg/ml (original tissue weight). […] Binding of [^3H]DHTBZ was performed as described by Teng et al. (1998). Briefly, 200 μl of the synaptic vesicle preparation (˜6 μg of protein) was incubated in wash buffer in the presence of [^3H]DHTBZ (2 nM final concentration) for 10 min at 25° C. The reaction was terminated by addition of 1 ml of cold wash buffer and rapid filtration through Whatman GF/F filters soaked in 0.5% polyethylenimine. Filters were washed three times with ice-cold wash buffer. Nonspecific binding was determined by coincubation with 20 μM tetrabenazine. All protein concentrations were determined by a BioRad protein assay (Bio-Rad, Richmond, Calif.).
Binding of [^3H]DHTBZ was performed as described by Teng et al. (1998). Briefly, 200 μl (˜6 μg protein) of the synaptic vesicle preparation was incubated in wash buffer in the presence of [^3H]DHTBZ (2 nM final concentration except in kinetic analyses wherein 0.25-500 nM DHTBZ was employed) for 10 m in at 25° C. The reaction was terminated by addition of 1 ml cold wash buffer and rapid filtration through Whatman GF/F filters soaked in 0.5% polyethylenimine. Filters were washed three times with ice-cold wash buffer. Radioactivity trapped in filters was counted using a liquid scintillation counter. Nonspecific binding was determined by coincubation with 20 μM TBZ. All protein concentrations were determined by a Bio-Rad protein assay (Bio-Rad Inc.).
Binding of[^3H]DHTBZ was performed as described by Teng et al. (1998). Briefly, 200 μl (˜5 μg protein) of the synaptic vesicle preparation was incubated in wash buffer in the presence of [^3H]DHTBZ (2 nM final concentration except in kinetic analyses wherein 0.25-500 nM DHTBZ was employed) for 10 m in at 25° C. The reaction was terminated by addition of 1 ml cold wash buffer and rapid filtration through Whatman GF/F filters soaked in 0.5% polyethylenimine. Filters were washed three times with ice-cold wash buffer. Radioactivity trapped in filters was counted using a liquid scintillation counter. Nonspecific binding was determined by coincubation with 20 μM TBZ. All protein concentrations were determined by a Bio-Rad protein assay (Bio-Rad Inc.).

[6] = Striatal tissue DA content of treated rats (HPLC); assay type: in vivo, rat
Description: On the day of the assay, frozen tissue samples were thawed, sonicated for 3-5 s in tissue buffer (0.05 M sodium phosphate/0.03 M citric acid buffer with 15% methanol (v/v); pH 2.78), and centrifuged for 15 min at 22,000×g. Tissue pellets were retained and protein determined according to the method of Lowry et al. (1951). The supernatant was centrifuged a second time for 15 min at 22,000×g. 20 μl of supernatant were injected onto a high performance liquid chromatograph system coupled to an electrochemical detector (+0.73 V) for separation and quantitation of dopamine levels using the method of Chapin et al. (1986).

[7] = Vesicular DA content in purified striatal vesicles of treated rats; assay type: in vivo, rat; conditions: rats, reserpine 10 mg/kg i.p. 6 and 1 h before decapitation
Description: Purified striatal vesicles were prepared as described above. The resulting vesicular pellet was sonicated for approximately 5 sec in cold tissue buffer (0.05 M sodium phosphate/0.03 M citric acid buffer with 15% methanol (v/v); pH 2.5) at a concentration of 100 mg/ml (original wet weight of tissue), and centrifuged for 15 min at 22,000×g. Tissue pellets were retained and protein was determined according to the method of Lowry et al. (1951). 40 μl of supernatant was injected onto a high performance liquid chromatograph system coupled to an electrochemical detector (+0.73 V) for separation and quantitation of DA levels using the method of Chapin et al. (1986).

[8] = biological target: T3, plasmalemmal DA transporter (DAT) (Rattus norvegicus, UniProt P23977); assay: Plasmalemmal [3H]DA uptake in striatal synaptosomes prepared from treated rats; assay type: in vivo; conditions: αMT 150 mg/kg i.p. 5 and 1 h prior to and 3 h after first MDMA injection, MDMA 4 x 10 mg/kg s.c.
T3 construct: from tissue; host or cells: striatum of male Sprague-Dawley rats (synaptosomes, P2)
T3 sequence (P23977 whole entry): as the sequence (P23977 whole entry) above
Description: Uptake of [^3H]DA was determined in striatal synaptosomes prepared according to the method described by Kokoshka et al. (1998). Briefly, fresh striatal tissue was homogenized in cold 0.32 M sucrose and centrifuged (800×g for 12 min; 4° C.). The supernatant (S1) was then centrifuged (22,000×g for 15 min; 4° C.), and the resulting pellet (P2) was resuspended in ice-cold modified Kreb's buffer (in mM: 126 NaCl, 4.8 KCl, 1.3 CaCl2, 16 sodium phosphate, 1.4 MgSO4, 11 dextrose, 1-ascorbic acid, pH 7.4). Assays were conducted in Kreb's buffer. Each assay tube contained synaptosomal tissue (i.e., resuspended P2 obtained from 1.5 mg of original wet weight striatal tissue) and 1 μM pargyline. Nonspecific values were determined in the presence of 100 μM cocaine. After preincubation of assay tubes for 10 min at 37° C., assays were initiated by the addition of [^3H]DA (0.5 nM final concentration). Samples were incubated at 37° C. for 3 min. Samples were then filtered through Whatman GF/B filters (Brandel, Gaithersburg, Md.) soaked previously in 0.05% polyethylenimine. Filters were washed rapidly 3 times with 3 ml of ice-cold 0.32 M sucrose using a Brandel filtering manifold. […] Remaining resuspended P2 samples were assayed for protein concentrations according to the method of Lowry et al. (1951). In MDMA preincubation experiments, samples were preincubated with 10 μM MDMA for 30 min at 37° C. After 30 min, resuspended P2 fractions were “washed” by centrifugation (22,000×g for 15 min; 4° C.). The resulting pellet (P3) was then resuspeded in ice-cold Kreb's buffer, and once again centrifuged (22,000×g for 15 min; 4° C.) to obtain a P4 pellet that was subsequently resuspended and assayed. [^3H]WIN35428 binding (0.5 nM final concentration) was conducted in phosphate-buffered 0.32 M sucrose, pH 7.4, with synaptosomes obtained from 2 mg (original wet weight) of striatal tissue per reaction tube, and samples were incubated on ice for 2 hr. Samples were then filtered through Whatman GF/B filters (Brandel, Gaithersburg, Md.) soaked previously in 0.05% polyethylenimine. […]

DAT [9] = biological target: T1, DAT; assay: [3H]WIN35428 binding in striatal synaptosomes prepared from treated rats; assay type: in vivo; conditions: αMT 150 mg/kg i.p., MDMA 4 x 10 mg/kg s.c.
Description: as §1

**Q.** With CCCCCCCCCCCCC(=O)N1CCCCC1CNC(=O)[C@@H](N)CCCCN.Cl.Cl (some centres unmarked) [NPC15437] as the compound, how does the “effect of PKC inhibitor pretreatment on the MDMA-induced deficit in vitro” value (DAT [1]) read?
**A.** attenuated

**Q.** Which “effect of PKC inhibitor pretreatment on the MDMA-induced deficit in vitro” value (DAT [1]) does the source give for CC(=O)O.Cn1cc(C2=C(c3cn(CCCN)c4ccccc34)C(=O)NC2=O)c2ccccc21 [Ro31-7549, 2-[1-3(Aminopropyl)indol-3-yl]-3(1-methylindol-3-yl)maleimide, acetate] here?
**A.** attenuated

**Q.** What does the source list for COC(=O)[C@H]1[C@@H](OC(=O)c2ccccc2)C[C@@H]2CC[C@H]1N2C [cocaine, (−)cocaine hydrochloride]?
**A.** decrease in VMAT-2 immunoreactivity in the P3 (synaptosomal membrane) fraction (VMAT-2 [2]; cocaine 30 mg/kg i.p. single): 33%; increase in VMAT-2 immunoreactivity in the S3 (vesicle-enriched) fraction (VMAT-2 [2]; cocaine 30 mg/kg i.p. single): 80%

**Q.** Which results are given for CCc1cc(Cl)c(OC)c(C(=O)NC[C@@H]2CCCN2CC)c1O [eticlopride, (−)-Eticlopride hydrochloride]?
**A.** effect of antagonist pretreatment on the methamphetamine-induced decrease in vesicular dopamine uptake (VMAT-2 [3]): attenuated; effect of antagonist pretreatment on the METH-induced decrease in vesicular [3H]DA uptake (VMAT-2 [4]; rat, in vivo): attenuated; effect of eticlopride on the MDMA-induced decrease in vesicular DA uptake (VMAT-2 [4]; rat, in vivo): attenuated; vesicular [3H]DA uptake after antagonist per se (VMAT-2 [4]; rats, antagonist 0.5 mg/kg i.p.): did not affect; effect of antagonist pretreatment on the MPD-induced increase in vesicular [3H]DA uptake (VMAT-2 [4]; rats, antagonist 0.5 mg/kg i.p. 15 min prior to MPD 40 mg/kg s.c., 1 h): attenuated; [3H]DHTBZ binding after antagonist per se (VMAT-2 [5]; antagonist 0.5 mg/kg i.p.): did not affect; effect of antagonist pretreatment on the MPD-induced increase in [3H]DHTBZ binding (VMAT-2 [5]; antagonist 0.5 mg/kg i.p. 15 min prior to MPD 40 mg/kg s.c., 1 h): completely prevented; effect of antagonist pretreatment on the MPD-induced increase in VMAT-2 immunoreactivity in the vesicular subcellular fraction (VMAT-2 [2]; antagonist 0.5 mg/kg i.p. 15 min prior to MPD 40 mg/kg s.c.): completely prevented

**Q.** Which results are given for COC(=O)[C@H]1[C@H]2C[C@@H]3c4[nH]c5cc(OC)ccc5c4CCN3C[C@H]2C[C@@H](OC(=O)c2cc(OC)c(OC)c(OC)c2)[C@@H]1OC [reserpine]?
**A.** depletion in total striatal tissue DA levels ([6]; rats, reserpine 10 mg/kg i.p. 6 and 1 h before decapitation): > 98%; striatal vesicular DA levels [7]: below the detection limit

**Q.** For CC(N)(Cc1ccc(O)cc1)C(=O)O.Cl (stereo not drawn) [αMT, α-methyl-p-tyrosine hydrochloride], which “striatal DA levels” value ([6]; αMT-treated rats, 150 mg/kg i.p.) is on record?
**A.** 10.1±2.0 pg/1 μg protein

**Q.** And the “effect of αMT pretreatment on the MDMA-induced decrease in DAT activity” value [8]?
**A.** did not affect

**Q.** What about the “effect of αMT pretreatment on the MDMA-induced deficit in WIN35428 binding” value (DAT [9]) of the same compound?
**A.** did not prevent
